ChEMBL document CHEMBL1201862, “PubChem BioAssay data set” (2004)
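48-hour exposure; five concentrations; linearly interpolated endpoints. GI50 is the concentration that inhibits growth by half.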 The source made the active and inactive calls. No stated cut-off is given here; in the data, active = GI50 up to about 1.1 µM and inactive = higher.

Columns and labels:
Assay in all cases: inhibition of tumour cell growth, NCI panel, 48 h
IGROV-1 = test system: IGROV-1
NCI-H23 = test system: NCI-H23
SF-268 = test system: SF-268
OVCAR-4 = test system: OVCAR-4
Hs-578T = test system: Hs-578T
BT-549 = test system: BT-549
NCI-H226 = test system: NCI-H226
HCT-116 = test system: HCT-116
MDA-MB-231 = test system: MDA-MB-231
EKVX = test system: EKVX
RPMI-8226 = test system: RPMI-8226
SK-MEL-28 = test system: SK-MEL-28
SN12C = test system: SN12C
A549 = test system: A549
PC-3 = test system: PC-3
CAKI-1 = test system: CAKI-1
SR = test system: SR
Malme-3M = test system: Malme-3M
SK-OV-3 = test system: SK-OV-3
NCI-H460 = test system: NCI-H460

c1ccc(CN2CCC(CNc3ncnc4ccccc34)C2)cc1 (stereo not given)
GI50 (IGROV-1): > 100 µM (inactive) | GI50 (NCI-H23): 40.3 µM (inactive) | GI50 (SF-268): 51.5 µM (inactive) | GI50 (OVCAR-4): 35.8 µM (inactive) | GI50 (Hs-578T): 58.5 µM (inactive) | GI50 (BT-549): > 100 µM (inactive) | GI50 (NCI-H226): 76.9 µM (inactive) | GI50 (HCT-116): 40.5 µM (inactive) | GI50 (MDA-MB-231): > 100 µM (inactive) | GI50 (EKVX): 25.1 µM (inactive) | GI50 (RPMI-8226): 9.02 µM (inactive) | GI50 (SK-MEL-28): 25.9 µM (inactive) | GI50 (SN12C): 98.6 µM (inactive) | GI50 (A549): > 100 µM (inactive) | GI50 (PC-3): 95.3 µM (inactive) | GI50 (CAKI-1): > 100 µM (inactive) | GI50 (SR): 17.2 µM (inactive) | GI50 (Malme-3M): 19.5 µM (inactive) | GI50 (SK-OV-3): > 100 µM (inactive) | GI50 (NCI-H460): 44.3 µM (inactive)

CCCCC(=O)OC[n+]1cccc(-c2c(COC(=O)NC(C)C)c(COC(=O)NC(C)C)c3n2CCC3)c1
GI50 (IGROV-1): 51.5 µM (inactive) | GI50 (NCI-H23): 26.2 µM (inactive) | GI50 (SF-268): 24.8 µM (inactive) | GI50 (OVCAR-4): 31.3 µM (inactive) | GI50 (Hs-578T): > 50.6 µM (inactive) | GI50 (BT-549): 28.8 µM (inactive) | GI50 (NCI-H226): 55.7 µM (inactive) | GI50 (HCT-116): 37.2 µM (inactive) | GI50 (MDA-MB-231): 62.5 µM (inactive) | GI50 (EKVX): > 100 µM (inactive) | GI50 (RPMI-8226): 30 µM (inactive) | GI50 (SK-MEL-28): > 100 µM (inactive) | GI50 (SN12C): 31.8 µM (inactive) | GI50 (A549): 81.1 µM (inactive) | GI50 (PC-3): 60.7 µM (inactive) | GI50 (CAKI-1): 12.3 µM (inactive) | GI50 (SR): 4.72 µM (inactive) | GI50 (Malme-3M): 32.7 µM (inactive) | GI50 (SK-OV-3): > 57.8 µM (inactive) | GI50 (NCI-H460): 15 µM (inactive)

O=c1[nH][nH]c(=S)c(=O)[nH]1
GI50 (IGROV-1): > 100 µM (inactive) | GI50 (NCI-H23): > 100 µM (inactive) | GI50 (SF-268): > 100 µM (inactive) | GI50 (OVCAR-4): > 100 µM (inactive) | GI50 (Hs-578T): > 100 µM (inactive) | GI50 (BT-549): > 100 µM (inactive) | GI50 (NCI-H226): > 100 µM (inactive) | GI50 (HCT-116): > 100 µM (inactive) | GI50 (MDA-MB-231): > 100 µM (inactive) | GI50 (EKVX): > 100 µM (inactive) | GI50 (RPMI-8226): > 100 µM (inactive) | GI50 (SK-MEL-28): > 100 µM (inactive) | GI50 (SN12C): > 100 µM (inactive) | GI50 (A549): > 100 µM (inactive) | GI50 (PC-3): > 100 µM (inactive) | GI50 (CAKI-1): > 100 µM (inactive) | GI50 (SR): > 100 µM (inactive) | GI50 (Malme-3M): > 100 µM (inactive) | GI50 (SK-OV-3): > 100 µM (inactive) | GI50 (NCI-H460): > 100 µM (inactive)

CC(=O)O[C@H]1CC2C(C3CCC(C(C)CCC(=O)O)[C@]31C)[C@H](OC(C)=O)C[C@@H]1CC3(CC[C@]21C)OOC1(CC[C@]2(C)C4C[C@H](OC(C)=O)[C@]5(C)C(C(C)CCC(=O)O)CCC5C4[C@H](OC(C)=O)C[C@@H]2C1)OO3 (stereo not given in full)
GI50 (IGROV-1): 2.12 µM (inactive) | GI50 (NCI-H23): 1.64 µM (inactive) | GI50 (SF-268): 1.38 µM (inactive) | GI50 (OVCAR-4): 2.8 µM (inactive) | GI50 (Hs-578T): 1.5 µM (inactive) | GI50 (BT-549): 1.56 µM (inactive) | GI50 (NCI-H226): 2.04 µM (inactive) | GI50 (HCT-116): 1.75 µM (inactive) | GI50 (MDA-MB-231): 2.01 µM (inactive) | GI50 (EKVX): 2.81 µM (inactive) | GI50 (RPMI-8226): 2.76 µM (inactive) | GI50 (SK-MEL-28): 4.09 µM (inactive) | GI50 (SN12C): 2.42 µM (inactive) | GI50 (A549): 1.27 µM (inactive) | GI50 (PC-3): 1.69 µM (inactive) | GI50 (CAKI-1): 2.19 µM (inactive) | GI50 (SR): 3.3 µM (inactive) | GI50 (Malme-3M): 1.52 µM (inactive) | GI50 (SK-OV-3): 4.08 µM (inactive) | GI50 (NCI-H460): 1.48 µM (inactive)

Nc1ccc(S(=O)(=O)Nc2ccc(Nc3c4ccccc4nc4ccccc34)cc2)cc1
GI50 (IGROV-1): 0.769 µM (active) | GI50 (NCI-H23): 0.0185 µM (active) | GI50 (SF-268): 0.0168 µM (active) | GI50 (OVCAR-4): 3.66 µM (inactive) | GI50 (Hs-578T): 1.86 µM (inactive) | GI50 (BT-549): 0.0906 µM (active) | GI50 (NCI-H226): 0.0101 µM (active) | GI50 (HCT-116): 0.165 µM (active) | GI50 (MDA-MB-231): 2.08 µM (inactive) | GI50 (EKVX): 1.82 µM (inactive) | GI50 (RPMI-8226): 0.0164 µM (active) | GI50 (SK-MEL-28): 0.738 µM (active) | GI50 (SN12C): < 0.01 µM (active) | GI50 (A549): < 0.01 µM (active) | GI50 (PC-3): 0.0555 µM (active) | GI50 (CAKI-1): < 0.0126 µM (active) | GI50 (SR): < 0.01 µM (active) | GI50 (Malme-3M): 0.0675 µM (active) | GI50 (SK-OV-3): 0.0174 µM (active) | GI50 (NCI-H460): 0.0347 µM (active)
